Measurements reported in patent US7579356B2, “Thia-tetraazaacenaphthylene kinase inhibitors” (Janssen Pharmaceutica NV, priority 2005, dated 2009).

molecular target: T1, EGFR (Homo sapiens, UniProt P00533); assay: EGFR Kinase Assay; format: biochemical; settings: GST-EGFR, ATP 5 μM
T1 construct: The intracellular portion of EGFR started at nucleotide 2189 (corresponding to amino acid 667) and ended at the termination codon; made in house; host or cells: Sf9 insect cells (baculovirus)
How it was run: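 Potency came from triplicate 16-point half-log titrations starting at 200 uM, with IC50 fitted from % inhibition against log concentration, or % inhibition at 2 μM otherwise. Reaction: Sf9-made GST–EGFR cytoplasmic region (aa 667 onward), biotin-polyGluTyr, 5 μM ATP with 33P tracer, pH 8.0 Tris/Mg/vanadate/DTT, 30 °C for 1 h; captured on streptavidin Flashplates and counted.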

T1 sequence (P00533 669-1210 limits assumed): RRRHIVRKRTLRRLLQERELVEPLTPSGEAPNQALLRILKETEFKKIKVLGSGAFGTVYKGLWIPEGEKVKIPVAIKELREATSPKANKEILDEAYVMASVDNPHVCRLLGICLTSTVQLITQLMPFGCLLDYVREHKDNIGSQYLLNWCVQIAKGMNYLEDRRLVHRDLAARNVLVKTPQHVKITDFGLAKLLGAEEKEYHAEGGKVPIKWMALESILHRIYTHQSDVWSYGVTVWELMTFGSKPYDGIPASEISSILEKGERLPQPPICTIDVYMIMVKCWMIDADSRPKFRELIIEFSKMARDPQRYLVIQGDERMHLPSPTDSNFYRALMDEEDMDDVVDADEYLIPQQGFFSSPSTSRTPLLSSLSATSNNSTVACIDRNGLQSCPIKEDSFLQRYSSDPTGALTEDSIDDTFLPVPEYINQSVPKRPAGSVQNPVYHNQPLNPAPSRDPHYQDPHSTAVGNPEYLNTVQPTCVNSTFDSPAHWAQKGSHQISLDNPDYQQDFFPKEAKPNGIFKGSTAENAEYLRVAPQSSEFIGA

**Q.** Which IC50 does the source give for O=C(Nc1ccc(CN2CCOCC2)cc1)c1sc2ncnc3c2c1NC(=O)N3c1c(Cl)ccc2c1OCO2 [Cpd 62, 5-(5-chloro-benzo[1,3]dioxol-4-yl)-4-oxo-4,5-dihydro-3H-1-thia-3,5,6,8-tetraaza-acenaphthylene-2-carboxylic acid (4-morpholin-4-ylmethyl-phenyl)-amide] here?
**A.** Its IC50 is 0.356 µM.

**Q.** Which IC50 does the source give for O=C(O)c1sc2ncnc3c2c1NC(=O)N3c1ccc2c(ccn2Cc2cccc(F)c2)c1 [Cpd 77, 5-[1-(3-fluoro-benzyl)-1H-indol-5-yl]-4-oxo-4,5-dihydro-3H-1-thia-3,5,6,8-tetraaza-acenaphthylene-2-carboxylic acid] here?
**A.** Its IC50 is 0.164 µM.

**Q.** CCOC(=O)c1sc2ncnc3c2c1NC(=O)N3c1ccc2c(cnn2Cc2cccc(F)c2)c1 [Cpd 78, 5-[1-(3-fluoro-benzyl)-1H-indazol-5-yl]-4-oxo-4,5-dihydro-3H-1-thia-3,5,6,8-tetraaza-acenaphthylene-2-carboxylic acid ethyl ester] was tested. Which IC50 did it give?
**A.** The IC50 was 2.22 µM.

**Q.** O=C(O)c1sc2ncnc3c2c1NC(=O)N3c1ccc2c(cnn2Cc2cccc(F)c2)c1 [Cpd 79, 5-[1-(3-fluoro-benzyl)-1H-indazol-5-yl]-4-oxo-4,5-dihydro-3H-1-thia-3,5,6,8-tetraaza-acenaphthylene-2-carboxylic acid] was tested. Which IC50 did it give?
**A.** The IC50 was 0.302 µM.

**Q.** With O=C(Nc1ccc(CN2CCCCC2)cc1)c1sc2ncnc3c2c1NC(=O)N3c1ccc2c(cnn2Cc2cccc(F)c2)c1 [Cpd 80, 5-[1-(3-fluoro-benzyl)-1H-indazol-5-yl]-4-oxo-4,5-dihydro-3H-1-thia-3,5,6,8-tetraaza-acenaphthylene-2-carboxylic acid (4-piperidin-1-ylmethyl-phenyl)-amide] as the molecule, how does the IC50 read?
**A.** The IC50 was 0.036 µM.

**Q.** For O=C(Nc1ccc(CN2CCCCC2)cc1)c1sc2ncnc3c2c1NC(=O)N3c1ccc2c(ccn2Cc2cccc(F)c2)c1 [Cpd 87, 5-[1-(3-fluoro-benzyl)-1H-indol-5-yl]-4-oxo-4,5-dihydro-3H-1-thia-3,5,6,8-tetraaza-acenaphthylene-2-carboxylic acid (4-piperidin-1-ylmethyl-phenyl)-amide], which IC50 is on record?
**A.** Its IC50 is 0.113 µM.

**Q.** How did the IC50 turn out when O=C(Nc1ccc(CN2CCCCC2)cc1)c1sc2ncnc3c2c1NC(=O)N3c1ccc(OCc2ccccn2)c(Cl)c1 [Cpd 89, 5-[3-chloro-4-(pyridin-2-ylmethoxy)-phenyl]-4-oxo-4,5-dihydro-3H-1-thia-3,5,6,8-tetraaza-acenaphthylene-2-carboxylic acid (4-piperidin-1-ylmethyl-phenyl)-amide] was run?
**A.** Its IC50 is 0.034 µM.

**Q.** Which IC50 does the source give for CN1CCN(Cc2ccc(NC(=O)c3sc4ncnc5c4c3NC(=O)N5c3ccc(OCc4ccccn4)c(Cl)c3)cc2)CC1 [Cpd 90, 5-[3-chloro-4-(pyridin-2-ylmethoxy)-phenyl]-4-oxo-4,5-dihydro-3H-1-thia-3,5,6,8-tetraaza-acenaphthylene-2-carboxylic acid [4-(4-methyl-piperazin-1-ylmethyl)-phenyl]-amide] here?
**A.** Its IC50 is 0.112 µM.

**Q.** CC(C)(C)OC(=O)N1CCC(NC(=O)c2sc3ncnc4c3c2NC(=O)N4c2ccc3c(ccn3Cc3cccc(F)c3)c2)CC1 [Cpd 91, 4-({5-[1-(3-fluoro-benzyl)-1H-indol-5-yl]-4-oxo-4,5-dihydro-3H-1-thia-3,5,6,8-tetraaza-acenaphthylene-2-carbonyl}-amino)-piperidine-1-carboxylic acid tert-butyl ester] was tested. Which IC50 did it give?
**A.** The IC50 was 0.168 µM.

**Q.** CN1CCC(NC(=O)c2sc3ncnc4c3c2NC(=O)N4c2ccc3c(ccn3Cc3cccc(F)c3)c2)CC1 [Cpd 92, 5-[1-(3-fluoro-benzyl)-1H-indol-5-yl]-4-oxo-4,5-dihydro-3H-1-thia-3,5,6,8-tetraaza-acenaphthylene-2-carboxylic acid (1-methyl-piperidin-4-yl)-amide] was tested. Which IC50 did it give?
**A.** Its IC50 is 0.045 µM.

**Q.** For O=C(NCCN1CCOCC1)c1sc2ncnc3c2c1NC(=O)N3c1ccc2c(ccn2Cc2cccc(F)c2)c1 [Cpd 93, 5-[1-(3-fluoro-benzyl)-1H-indol-5-yl]-4-oxo-4,5-dihydro-3H-1-thia-3,5,6,8-tetraaza-acenaphthylene-2-carboxylic acid (2-morpholin-4-yl-ethyl)-amide], which IC50 is on record?
**A.** The IC50 was 0.07 µM.

**Q.** For O=C(Nc1ccc(N2CCOCC2)cc1)c1sc2ncnc3c2c1NC(=O)N3c1ccc2c(ccn2Cc2cccc(F)c2)c1 [Cpd 94, 5-[1-(3-fluoro-benzyl)-1H-indol-5-yl]-4-oxo-4,5-dihydro-3H-1-thia-3,5,6,8-tetraaza-acenaphthylene-2-carboxylic acid (4-morpholin-4-yl-phenyl)-amide], which IC50 is on record?
**A.** Its IC50 is 0.264 µM.

**Q.** Which IC50 does the source give for O=C(NCCCN1CCOCC1)c1sc2ncnc3c2c1NC(=O)N3c1ccc2c(ccn2Cc2cccc(F)c2)c1 [Cpd 95, 5-[1-(3-fluoro-benzyl)-1H-indol-5-yl]-4-oxo-4,5-dihydro-3H-1-thia-3,5,6,8-tetraaza-acenaphthylene-2-carboxylic acid (3-morpholin-4-yl-propyl)-amide] here?
**A.** The IC50 was 0.069 µM.

**Q.** How did the IC50 turn out when O=C(Nc1ccc(CN2CCCCC2)cc1)c1sc2ncnc3c2c1NC(=O)N3c1ccc(Oc2ccccc2)cc1 [Cpd 96, 4-oxo-5-(4-phenoxy-phenyl)-4,5-dihydro-3H-1-thia-3,5,6,8-tetraaza-acenaphthylene-2-carboxylic acid (4-piperidin-1-ylmethyl-phenyl)-amide] was run?
**A.** Its IC50 is 0.01 µM.

**Q.** With O=C(Nc1ccc(CN2CCOCC2)cc1)c1sc2ncnc3c2c1NC(=O)N3c1ccc(Oc2ccccc2)cc1 [Cpd 97, 4-oxo-5-(4-phenoxy-phenyl)-4,5-dihydro-3H-1-thia-3,5,6,8-tetraaza-acenaphthylene-2-carboxylic acid (4-morpholin-4-ylmethyl-phenyl)-amide] as the molecule, how does the IC50 read?
**A.** Its IC50 is 0.013 µM.

**Q.** Which IC50 does the source give for CN1CCN(Cc2ccc(NC(=O)c3sc4ncnc5c4c3NC(=O)N5c3ccc(Oc4ccccc4)cc3)cc2)CC1 [Cpd 98, 4-oxo-5-(4-phenoxy-phenyl)-4,5-dihydro-3H-1-thia-3,5,6,8-tetraaza-acenaphthylene-2-carboxylic acid [4-(4-methyl-piperazin-1-ylmethyl)-phenyl]-amide] here?
**A.** The IC50 was 0.022 µM.

**Q.** Which IC50 does the source give for COc1cc(NC(=O)c2sc3ncnc4c3c2NC(=O)N4c2ccc(Oc3ccccc3)cc2)ccc1OCCN1CCCCC1 [Cpd 100, 4-oxo-5-(4-phenoxy-phenyl)-4,5-dihydro-3H-1-thia-3,5,6,8-tetraaza-acenaphthylene-2-carboxylic acid [3-methoxy-4-(2-piperidin-1-yl-ethoxy)-phenyl]-amide] here?
**A.** The IC50 was 0.015 µM.

**Q.** How did the IC50 turn out when Cc1ccc(N2C(=O)Nc3c(C(=O)Nc4ccc(CN5CCOCC5)cc4)sc4ncnc2c34)cc1Br [Cpd 108, 5-(3-bromo-4-methyl-phenyl)-4-oxo-4,5-dihydro-3H-1-thia-3,5,6,8-tetraaza-acenaphthylene-2-carboxylic acid (4-morpholin-4-ylmethyl-phenyl)-amide] was run?
**A.** Its IC50 is 0.043 µM.

same assay, conditions: test concentration of 2 μM; compounds without an IC50; read-out: EGFR inhibition in percent

**Q.** COc1cc(N2C(=O)Nc3c(C(=O)Nc4ccc(CN5CCCC5)cc4)sc4ncnc2c34)c(Cl)cc1Cl [Cpd 43, 5-(2,4-dichloro-5-methoxy-phenyl)-4-oxo-4,5-dihydro-3H-1-thia-3,5,6,8-tetraaza-acenaphthylene-2-carboxylic acid (4-pyrrolidin-1-ylmethyl-phenyl)-amide] was tested. Which inhibition at 2 µM did it give?
**A.** Its inhibition at 2 µM is 47%.

**Q.** COc1ccc(Cl)c(N2C(=O)Nc3c(C(=O)Nc4ccc(OC)c(OC)c4)sc4ncnc2c34)c1 [Cpd 49, 5-(2-chloro-5-methoxy-phenyl)-4-oxo-4,5-dihydro-3H-1-thia-3,5,6,8-tetraaza-acenaphthylene-2-carboxylic acid (3,4-dimethoxy-phenyl)-amide] was tested. Which inhibition at 2 µM did it give?
**A.** Its inhibition at 2 µM is 25%.

**Q.** With COc1ccc(Cl)c(N2C(=O)Nc3c(C(=O)Nc4ccc(OCCN5CCOCC5)c(OC)c4)sc4ncnc2c34)c1 [Cpd 50, 5-(2-chloro-5-methoxy-phenyl)-4-oxo-4,5-dihydro-3H-1-thia-3,5,6,8-tetraaza-acenaphthylene-2-carboxylic acid [3-methoxy-4-(2-morpholin-4-yl-ethoxy)-phenyl]-amide] as the molecule, how does the inhibition at 2 µM read?
**A.** The inhibition at 2 µM was 30%.

**Q.** How did the inhibition at 2 µM turn out when COc1ccc(Cl)c(N2C(=O)Nc3c(C(=O)Nc4ccc(CN5CCOCC5)cc4)sc4ncnc2c34)c1 [Cpd 51, 5-(2-chloro-5-methoxy-phenyl)-4-oxo-4,5-dihydro-3H-1-thia-3,5,6,8-tetraaza-acenaphthylene-2-carboxylic acid (4-morpholin-4-ylmethyl-phenyl)-amide] was run?
**A.** The inhibition at 2 µM was 53%.

**Q.** Which inhibition at 2 µM does the source give for COC(=O)c1sc2ncnc3c2c1NC(=O)N3c1c(Cl)ccc2c1OCO2 [Cpd 54, 5-(5-chloro-benzo[1,3]dioxol-4-yl)-4-oxo-4,5-dihydro-3H-1-thia-3,5,6,8-tetraaza-acenaphthylene-2-carboxylic acid methyl ester] here?
**A.** Its inhibition at 2 µM is 25%.

**Q.** For COc1cc(N2C(=O)Nc3c(C(=O)Nc4ccc(CN5CCN(C)CC5)cc4)sc4ncnc2c34)c(Cl)cc1Cl [Cpd 60], which inhibition at 2 µM is on record?
**A.** Its inhibition at 2 µM is 29%.

**Q.** With CCOC(=O)c1sc2ncnc3c2c1NC(=O)N3c1ccc(Oc2ccc(F)cc2)cc1 [Cpd 101, 5-[4-(4-fluoro-phenoxy)-phenyl]-4-oxo-4,5-dihydro-3H-1-thia-3,5,6,8-tetraaza-acenaphthylene-2-carboxylic acid ethyl ester] as the molecule, how does the inhibition at 2 µM read?
**A.** Its inhibition at 2 µM is 18%.

**Q.** For CCOC(=O)c1sc2ncnc3c2c1NC(=O)N3c1ccc(C)c(Br)c1 [Cpd 102, 5-(3-bromo-4-methyl-phenyl)-4-oxo-4,5-dihydro-3H-1-thia-3,5,6,8-tetraaza-acenaphthylene-2-carboxylic acid ethyl ester], which inhibition at 2 µM is on record?
**A.** Its inhibition at 2 µM is 17%.

**Q.** Which inhibition at 2 µM does the source give for CCOC(=O)c1sc2ncnc3c2c1NC(=O)N3c1cc(Br)ccc1C [Cpd 103, 5-(5-bromo-2-methyl-phenyl)-4-oxo-4,5-dihydro-3H-1-thia-3,5,6,8-tetraaza-acenaphthylene-2-carboxylic acid ethyl ester] here?
**A.** The inhibition at 2 µM was 21%.

**Q.** How did the inhibition at 2 µM turn out when O=C(Nc1ccc(CN2CCOCC2)cc1)c1sc2ncnc3c2c1NC(=O)N3c1c(Cl)cccc1Cl [Cpd 104, 5-(2,6-dichloro-phenyl)-4-oxo-4,5-dihydro-3H-1-thia-3,5,6,8-tetraaza-acenaphthylene-2-carboxylic acid (4-morpholin-4-ylmethyl-phenyl)-amide] was run?
**A.** Its inhibition at 2 µM is 41%.
